# Measured values published in ChEMBL document CHEMBL1152105, “Anthraquinones related to rhein inhibit glucose uptake into chondrocytes. A mechanism for anti-osteoarthritis drugs?” (1997).
# Experiment: Percent inhibition of glucose uptake into chondrocytes prepared from the metacarpophalageal joints of mature cow at concentration of 50 uM
# Format: functional
# Settings: Bos taurus
row,Structure (SMILES),inhibition at 50 µM
1,O=C1c2cccc(O)c2C(=O)c2c(O)cc(-c3nn[nH]n3)cc21,103%
2,COc1ccc(OC)c2c1C(=O)c1ccc(-c3nn[nH]n3)cc1C2=O,81.8%
3,COc1cc(C(=O)O)c(OC)c2c1C(=O)c1ccccc1C2=O,14%
4,CCOc1cccc2c1C(=O)c1c(OCC)cc(C(=O)O)cc1C2=O,18.5%
5,COc1cccc2c1C(=O)c1c(OC)cc(C(=O)O)cc1C2=O,-1.9%
6,CC(=O)Oc1ccc2c(c1)C(=O)c1cc(C(=O)O)ccc1C2=O,1.6%
7,COc1cccc2c1C(=O)c1c(OC)cc(-c3nn[nH]n3)cc1C2=O,36.2%
8,CCOc1cccc2c1C(=O)c1c(OCC)cc(-c3nn[nH]n3)cc1C2=O,92%
9,COc1cc(C(=O)O)cc2c1C(=O)c1c(OC)ccc(OC)c1C2=O,4.8%
10,COc1ccc(OC)c2c1C(=O)c1ccc(C(=O)O)cc1C2=O,25.3%
11,O=C(O)c1cc(O)c2c(c1)C(=O)c1c(O)ccc(O)c1C2=O,22.1%
12,CCOc1ccc(OCC)c2c1C(=O)c1ccc(C(=O)O)cc1C2=O,37.7%
13,O=C(O)c1ccc2c(c1)C(=O)c1cc(O)ccc1C2=O,16.9%
14,O=C(O)c1cc(O)c2c(c1O)C(=O)c1ccccc1C2=O,24.9%
15,CC(=O)Oc1ccc(OC(C)=O)c2c1C(=O)c1ccc(C(=O)O)cc1C2=O,14.8%
16,CCCOc1cccc2c1C(=O)c1c(OCCC)cc(C(=O)O)cc1C2=O,56.7%
17,Oc1cc(O)c2c(c1)O[C@H](c1ccc(O)c(O)c1)[C@@H](O)C2 [CIANIDANOL],12.1%
18,O=C(CCc1ccc(O)cc1)c1c(O)cc(O)cc1O[C@@H]1O[C@H](CO)[C@@H](O)[C@H](O)[C@H]1O [PHLORIZIN],11.9%
19,O=C(O)c1cc(O)c2c(c1)C(=O)c1cccc(O)c1C2=O [RHEIN],3%
